The source of these data is patent US20130302282A1, “Inhibitors of Hepatitis C Virus” (priority 2010, published 2013).

The subject of one assay is HCV 1a. Put plainly: HCV 1a replicon assay. The conditions noted are these: Hepatitis C virus; class symbol; cell marked (HCV genotype 1a replicon); read-out: Inhibition of HCV genotype 1a replicon. Format: cell-based. The procedure:
(§1) Compounds of the invention can inhibit multiple genotypes of HCV selected but not limited to 1a, 1h, 2a, 3a, and 4a. The EC50s are measured in the corresponding replicon assays that are similar to HCV 1b replicon assay as described above.
(§2) The biological activity against HCV 1b, 1a, or 2a is indicated as being *, **, ***, or ****, which corresponds to EC50 ranges of EC50>1000 nM, 100 nM<EC50≦1000 nM, 10 nM<EC50≦100 nM, or EC50≦10 nM, respectively. The biological activity against HCV NS5B C316Y or S365A mutant is indicated as being […], which corresponds to EC50 ranges of EC50>1000 nM, 200 nM<EC50≦1000 nM, […], respectively.
On the technique in general: Replicon systems follow genome replication, usually without infectious particles.

Assay [1] deals with 1b_Huh-Luc/Neo-ET cell line (bicistronic genotype 1b replicon in Huh 7 cells). Put plainly: HCV 1b replicon assay, luciferase readout. To be noted: Hepatitis C virus, Huh-7, 1b_Huh-Luc/Neo-ET cell line; read-out: EC50, half-maximal inhibition of HCV 1b replication. Format: cell-based, HCV genotype 1b. The procedure, abridged:
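Huh 7 cells persistently carrying a bicistronic genotype 1b luciferase replicon, treated with compound in triplicate the day after plating and incubated 72 h. Luciferase activity measured by Bright-Glo and expressed as percent of untreated control; EC50 from four-parameter fit, repeated several times.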

In another assay the test system is HCV 2a. Put plainly: HCV 2a replicon assay. The format is cell-based. To be noted: Hepatitis C virus; class symbol; cell marked (HCV genotype 2a replicon); read-out: Inhibition of HCV genotype 2a replicon. On the procedure: as §1, §2

`CNC(=O)c1c(-c2ccc(F)cc2)oc2cc3c(cc12)[C@@H](C)N1CCC[C@H]1CN3S(C)(=O)=O` (single isomer, unassigned) [Compound B122]: the EC50 with HCV 1a was > 1000 nM.

Turning to `CNC(=O)c1c(-c2ccc(Oc3ccc(F)cc3)cc2)oc2cc3c(cc12)[C@H]1C[C@H]1CCN3S(C)(=O)=O` (single isomer, unassigned) [Compound B143], the EC50 in the assay with HCV 1a lay in the range of 100 to 1000 nM. Regarding `CNC(=O)c1c(-c2ccc(Oc3ccc(F)cc3)cc2)oc2cc3c(cc12)[C@@H]1C[C@@H]1CCN3S(C)(=O)=O` (single isomer, unassigned) [Compound B146], the EC50 (with HCV 1a; in assay [1]) was 10 to 100 nM in each case.

On to `CNC(=O)c1c(-c2ccc(F)cc2)oc2cc3c(cc12)C(C)CCN3S(C)(=O)=O` (centres unmarked) [Compound B10], for which, in the assay on HCV 2a, the EC50 was 100 to 1000 nM. The same measure, in the same setting: the value for `CNC(=O)c1c(-c2ccc(F)cc2)oc2cc3c(cc12)C(C)=CCN3S(C)(=O)=O` [Compound B11] was > 1000 nM. On the same count and under the same terms, the value for `C=C1CCCN(S(C)(=O)=O)c2cc3oc(-c4ccc(F)cc4)c(C(=O)NC)c3cc21` [Compound B61] was > 1000 nM. On the same count and under the same terms, the value for `CNC(=O)c1c(-c2ccc(F)cc2)oc2cc3c(cc12)C(C)=CCCN3S(C)(=O)=O` [Compound B62] was > 1000 nM. As for `CS(=O)(=O)N1CCCCc2cc3c(C(=O)NC#N)c(-c4ccc(F)cc4)oc3cc21` [Compound B64], the EC50 with HCV 2a is > 1000 nM. Same read-out and setting: the value for `CS(=O)(=O)N1CCCCc2cc3c(-c4nnn[nH]4)c(-c4ccc(F)cc4)oc3cc21` [Compound B65] was > 1000 nM; that for `CS(=O)(=O)N1CCCCc2cc3c(C4=NCCN4)c(-c4ccc(F)cc4)oc3cc21` [Compound B66] was > 1000 nM; that for `C=C1CCCN(S(C)(=O)=O)c2cn3nc(-c4ccc(F)cc4)c(C(=O)NC)c3cc21` [Compound B68] was > 1000 nM. On the same count and under the same terms, the value for `CNC(=O)c1c(-c2ccc(F)cc2)nn2cc3c(cc12)C(=O)CCCN3S(C)(=O)=O` [Compound B69] was > 1000 nM; that for `CNC(=O)c1c(-c2ccc(F)cc2)nn2cc3c(cc12)OCCCN3S(C)(=O)=O` [Compound B70] was > 1000 nM; that for `CNC(=O)c1c(-c2ccc(F)cc2)nn2cc3c(cc12)C(C)=CCCN3S(C)(=O)=O` [Compound B72] was > 1000 nM. On to `CNC(=O)c1c(-c2ccc(F)cc2)oc2cc3c(cc12)CCCCN3C(C)=O` [Compound B80], for which, in the assay with HCV 1a, the EC50 was > 1000 nM. The same measure, in the same setting: the value for `CNC(=O)c1c(-c2ccc(F)cc2)oc2cc3c(cc12)/C(C)=C\CCCN3S(C)(=O)=O` [Compound B81] was 100 to 1000 nM. Same read-out and setting: the value for `CNC(=O)c1c(-c2ccc(F)cc2)oc2cc3c(cc12)C(=O)CCCCN3S(C)(=O)=O` [Compound B82] was 100 to 1000 nM; that for `CNC(=O)c1c(-c2ccc(F)cc2)oc2cc3c(cc12)CCCCN3S(N)(=O)=O` [Compound B102] was 100 to 1000 nM; that for `CNC(=O)c1c(-c2ccc(F)cc2)oc2cc3c(cc12)CCCCN3S(=O)(=O)N(C)C` [Compound B103] was 100 to 1000 nM. As for `CNC(=O)c1c(-c2ccc(F)cc2)oc2cc3c(cc12)C1(CCCCN3S(C)(=O)=O)CC1` [Compound B104], in the assay on HCV 1a, the EC50 lay within 100 to 1000 nM.

On to `CNC(=O)c1c(-c2ccccc2)nn2cc3c(cc12)C(C)CCCN3S(C)(=O)=O` (centres unmarked) [Compound B105], for which the EC50 in the assay on HCV 1a lay in the range of 100 to 1000 nM.

In the case of `CNC(=O)c1c(-c2ccc(F)cc2)oc2cc3c(cc12)C(=O)N(C)CCN3S(C)(=O)=O` [Compound B106], the EC50 (in the assay with HCV 1a; in assay [1]) was 10 to 100 nM throughout.

Regarding `CNC(=O)c1c(-c2ccc(F)cc2)oc2cc3c(cc12)C(C)N(CC1CC1)CCN3S(C)(=O)=O` (centres unmarked) [Compound B108], the EC50 (in the assay with HCV 1a; in assay [1]) was 10 to 100 nM in each case. Take `CNC(=O)c1c(-c2ccc(F)cc2)oc2cc3c(cc12)C(C)N(C(=O)OC)CCN3S(C)(=O)=O` (centres unmarked) [Compound B109]: the EC50 (with HCV 1a; in assay [1]) was 10 to 100 nM each time. As to `CNC(=O)c1c(-c2ccc(F)cc2)oc2cc3c(cc12)C(C)N(C(C)=O)CCN3S(C)(=O)=O` (centres unmarked) [Compound B110], the EC50 in the assay on HCV 1a lay within 100 to 1000 nM.

In the case of `CNC(=O)c1c(-c2ccc(F)cc2)oc2cc3c(cc12)C(C)N(C(=O)OCc1ccccc1)CCN3S(C)(=O)=O` (centres unmarked) [Compound B111], the EC50 (in the assay on HCV 1a; in assay [1]) was 10 to 100 nM throughout. On to `[2H]C([2H])([2H])NC(=O)c1c(-c2ccc(F)cc2)oc2cc3c(cc12)CCCCN3S(C)(=O)=O` [Compound B112], for which the EC50 (in the assay with HCV 1a; in assay [1]) was 10 to 100 nM in each case. Consider `[2H]C([2H])([2H])NC(=O)c1c(-c2ccc(F)cc2)oc2cc3c(cc12)CCCCCN3S(C)(=O)=O` [Compound B113], for which the EC50 (in the assay with HCV 1a; in assay [1]) was 10 to 100 nM in each case. Turning to `CNC(=O)c1c(-c2ccc(F)cc2)oc2cc3c(cc12)C(C)C(C)(C)CCN3S(C)(=O)=O` (centres unmarked) [Compound B115], the EC50 (in the assay on HCV 1a; in assay [1]) was 10 to 100 nM throughout. For `CNC(=O)c1c(-c2ccc(Oc3ccc(F)cc3)cc2)oc2cc3c(cc12)C(C)OCCN3S(C)(=O)=O` (centres unmarked) [Compound B116], the EC50 (in the assay on HCV 1a; in assay [1]) was 10 to 100 nM each time. For `CNC(=O)c1c(-c2ccc(Oc3ccc(F)cc3)cc2)oc2cc3c(cc12)[C@@H](C)OCCN3S(C)(=O)=O` [Compound B117], the EC50 with HCV 1a is 100 to 1000 nM. On to `[2H]C([2H])([2H])NC(=O)c1c(-c2ccc(Oc3ccc(F)cc3)cc2)oc2cc3c(cc12)C(C)OCCN3S(C)(=O)=O` (centres unmarked) [Compound B119], for which the EC50 (in the assay with HCV 1a; in assay [1]) was 10 to 100 nM each time. For `[2H]C([2H])([2H])NC(=O)c1c(-c2ccc(F)cc2)oc2cc3c(cc12)C(C)CCCN3S(C)(=O)=O` (centres unmarked) [Compound B121], the EC50 in the assay with HCV 1a was < 10 nM; in assay [1], ≤ 10 nM. The matching figures for `CCCN1CCN(S(C)(=O)=O)c2cc3oc(-c4ccc(F)cc4)c(C(=O)NC)c3cc2C1C` (centres unmarked) [Compound B137]: 10 to 100 nM and 10 to 100 nM.

On to `CNC(=O)c1c(-c2ccc(Oc3ccc(F)cc3)cc2)oc2cc3c(cc12)C1CC1CCN3S(C)(=O)=O` (centres unmarked) [Compound B140], for which, in the assay on HCV 1a, the EC50 fell in the range of 100 to 1000 nM. The same measure, in the same setting: the value for `CNC(=O)c1c(-c2ccc(Oc3ccc(F)cc3)cc2)oc2cc3c(cc12)C1(CCCN3S(C)(=O)=O)CC1` [Compound B141] was 100 to 1000 nM.

Consider `CNC(=O)c1c(-c2ccc(F)cc2)oc2cc3c(cc12)C(C)N(CC(=O)N(C)C)CCN3S(C)(=O)=O` (centres unmarked) [Compound B150], for which the EC50 (in the assay on HCV 1a; in assay [1]) was 10 to 100 nM throughout.

`CNC(=O)c1c(-c2ccc(Oc3ccc(F)cc3)cc2)oc2cc3c(cc12)C(C)N(C)CCN3S(C)(=O)=O` (centres unmarked) [Compound B151]: the EC50 (in the assay with HCV 1a; in assay [1]) was 10 to 100 nM in each case. In the case of `[2H]C([2H])([2H])NC(=O)c1c(-c2ccc(F)cc2)oc2cc3c(cc12)C(C)N(C)CCN3S(C)(=O)=O` (centres unmarked) [Compound B152], the EC50 with HCV 1a is 100 to 1000 nM. As to `CNC(=O)c1c(-c2ccc(F)cc2)oc2cc3c(cc12)C(CF)OCCN3S(C)(=O)=O` (centres unmarked) [Compound B153], the EC50 (in the assay on HCV 1a; in assay [1]) was 10 to 100 nM throughout. Consider `CNC(=O)c1c(-c2ccc(F)cc2)oc2cc3c(cc12)C(C)N(CCCO)CCN3S(C)(=O)=O` (centres unmarked) [Compound B154], for which the EC50 (in the assay with HCV 1a; in assay [1]) was 10 to 100 nM throughout. For the compound `CNC(=O)c1c(-c2ccc(F)cc2)oc2cc3c(cc12)C(C)N(CCc1ccc(F)cc1)CCN3S(C)(=O)=O` (centres unmarked) [Compound B155], the EC50 (in the assay on HCV 1a; in assay [1]) was 10 to 100 nM throughout.
